Measurements: patent US12150995B2, “IRAK degraders and uses thereof” (Kymera Therapeutics, Inc., priority 2020, dated 2024)

Target: T1, IRAK4 (Homo sapiens, UniProt Q9NWZ3)
T1 construct: endogenous in cells; host or cells: OCI-LY10
T1 sequence (Q9NWZ3 1-460): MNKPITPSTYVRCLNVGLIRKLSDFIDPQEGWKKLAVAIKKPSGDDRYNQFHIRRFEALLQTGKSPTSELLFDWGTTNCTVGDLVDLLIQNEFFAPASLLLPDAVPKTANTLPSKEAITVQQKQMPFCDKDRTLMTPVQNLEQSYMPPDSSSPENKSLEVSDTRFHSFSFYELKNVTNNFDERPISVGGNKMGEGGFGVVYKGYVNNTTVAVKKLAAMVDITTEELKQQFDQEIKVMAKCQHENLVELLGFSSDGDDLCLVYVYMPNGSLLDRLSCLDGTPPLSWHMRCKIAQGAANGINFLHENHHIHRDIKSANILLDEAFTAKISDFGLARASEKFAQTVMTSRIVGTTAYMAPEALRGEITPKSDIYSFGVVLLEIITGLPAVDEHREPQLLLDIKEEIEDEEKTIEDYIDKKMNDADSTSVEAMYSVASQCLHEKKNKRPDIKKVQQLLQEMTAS
Assay: IRAK4 MSD Degradation in OCI-LY10
Type: cell-based
Conditions: OCI-LY10 cells, Meso Scale Discovery, incubated 4 to 24 hours
Experimental: Degradation of IRAK4 in OCI-LY10 was quantitatively measured using Meso Scale Discovery technology. OCI-LY10 cells were seeded in 96-well plates (Corning 3799) with a density of 300,000 cells per well in 100 μL fresh media. Compounds were then added to the assay plates with a final top concentration of 1 to 10 μM in a 1:3 dilution series with total of 8 doses. The assay plates were then incubated for 4 to 24 hours at 37° C. under 5% CO2. The assay plates were then centrifuged for 5 minutes and the cell pellets were treated with 100 μL/well RIPA lysis buffer (Boston BioProducts BP-115D) with proteinase inhibitors. To prepare MSD assay plates (Meso Scale Discovery Catalog number L15XA-3), the plates were coated with 2 μg/mL capture antibody (mouse Anti-IRAK4 antibody [2H9], ab119942) in PBS, at 40 μL/well. The plates were then incubated overnight at 4° C., washed 3 times with 150 μL/well TBST buffer (Cell Signaling Technology, Catalog number 9997S) and blocked with 150 μL/well blocking buffer (Meso Scale Discovery Catalog number R93BA-4). Cell lysates were then added to MSD assay plates and the plates were incubated at room temperature for 1 hour. The plates were then washed 3 times with 150 μL/well TBST buffer and […] primary detection antibody (rabbit Anti-IRAK4 antibody [Y279], from Abcam. Catalog number ab32511, 1 μg/mL). The assay plates were then incubated at room temperature for 1 hour, washed 3 times with 150 μL/well TBST buffer and 254/well secondary detection antibody, SULFO-TAG anti-rabbit antibody were added (anti rabbit antibody from Meso Scale Discovery, Catalog number R32AB-1, 1 μg/mL). The assay plates were then incubated at room temperature for 1 hour, washed 3 times with 150 μL/well TBST buffer, and 150 μL/well MSD reading buffer (Meso Scale Discovery catalog number R92TC-2) was added. The plates were then analyzed by a MSD reader (Meso Scale Discovery, Model Quick Plex SQ 120). The data was then analyzed by software Prism 7.0 from GraphPad and the dose-depended IRAK4 degradation were fit using a three-parameter logistic equation to calculate DC50.
The letter codes for IRAK4 DC50 include: A (<0.01 μM); B (0.01-0.05 μM); C (0.05-0.1 μM); D (0.1-0.2 μM); and E (>0.2 μM).

| Compound | DC50 [nM] |
| --- | --- |
| Cn1c(=O)n(C2CCC(=O)NC2=O)c2cccc(N3CC4CC(C3)N4C[C@H]3CC[C@@H](n4cc5cc(NC(=O)c6cccc(C(F)(F)F)n6)ccc5n4)CC3)c21 (single isomer, unassigned) [I-156, N-[2-[4-[[3-[1-(2,6-dioxo-3-piperidyl)-3-methyl-2-oxo-benzimidazol-4-yl]-3,6-diazabicyclo[3.1.1]heptan-6-yl]methyl]cyclohexyl]indazol-5-yl]-6-(trifluoromethyl)pyridine-2-carboxamide] | > 200 |
| CN(C[C@H]1CC[C@H](n2cc3cc(NC(=O)C4CC4)c(C(C)(C)O)cc3n2)CC1)C1CCN(Cc2cccc3c2n(C)c(=O)n3C2CCC(=O)NC2=O)CC1 (stereo partly drawn) [I-1] | > 200 |
| O=C1CCC(N2C(=O)c3cccc(NCCC4CC5(C4)CN(C[C@H]4CC[C@H](n6cc7cc(NC(=O)c8cccc(C(F)(F)F)n8)c(OC8CC8)cc7n6)CC4)C5)c3C2=O)C(=O)N1 (stereo partly drawn) [I-2] | > 200 |
| COc1cc2nn([C@H]3CC[C@H](CN4CCC5(CC4)CC(CNc4cccc6c4C(=O)N(C4CCC(=O)NC4=O)C6=O)C5)CC3)cc2cc1NC(=O)c1cccc(C(C)(F)F)n1 (stereo partly drawn) [I-4] | 50 to 100 |
| COc1cc2nc([C@H]3CC[C@H](CN4CCC5(CC4)CC(CCNc4cccc6c4C(=O)N(C4CCC(=O)NC4=O)C6=O)C5)CC3)oc2cc1NC(=O)c1cnn2cccnc12 (stereo partly drawn) [I-7] | > 200 |
| COc1cc2nn([C@H]3CC[C@H](CN4CCC5(CC4)CC(CCNc4cccc6c4C(=O)N(C4CCC(=O)NC4=O)C6=O)C5)CC3)cc2cc1NC(=O)c1cccc(C(F)(F)F)n1 (stereo partly drawn) [I-9] | 50 to 100 |
| COc1cc2nc([C@H]3CC[C@H](CN4CC5(CC(CCNc6cccc7c6C(=O)N(C6CCC(=O)NC6=O)C7=O)C5)C4)CC3)cn2cc1NC(=O)c1cccc(C(F)(F)F)n1 (stereo partly drawn) [I-10] | 50 to 100 |
| COc1cc2nn([C@H]3CC[C@@H](CN4CC5(CC(CCNc6cccc7c6C(=O)N(C6CCC(=O)NC6=O)C7=O)C5)C4)CC3)cc2cc1NC(=O)c1cccc(C(C)(F)F)n1 (stereo partly drawn) [I-11, 6-(1,1-Difluoroethyl)-N-[2-[4-[[6-[2-[[2-(2,6-dioxo-3-piperidyl)-1,3-dioxo-isoindolin-4-yl]amino]ethyl]-2-azaspiro[3.3]heptan-2-yl]methyl]cyclohexyl]-6-methoxy-indazol-5-yl]pyridine-2-carboxamide] | 50 to 100 |
| CC(C)(O)c1cc2nc([C@H]3CC[C@H](CN4CC5(CC(CCNc6cccc7c6C(=O)N(C6CCC(=O)NC6=O)C7=O)C5)C4)CC3)[nH]c2cc1NC(=O)c1cccc(C(F)(F)F)n1 (stereo partly drawn) [I-14] | 50 to 100 |
| COc1cc2nn([C@H]3CC[C@H](CN4CCC5(CC4)CC(CCNc4cccc6c4C(=O)N(C4CCC(=O)NC4=O)C6=O)C5)CC3)cc2cc1NC(=O)c1cnn2ccc(C(F)(F)F)nc12 (stereo partly drawn) [I-15] | > 200 |
| Cn1c(=O)n(C2CCC(=O)NC2=O)c2cccc(C3CCN(C[C@H]4C[C@@H](n5cc6cc(NC(=O)c7cccc(C(F)(F)F)n7)c(F)cc6n5)C4)CC3)c21 (stereo partly drawn) [I-18] | > 200 |
| CN(CCn1cc2cc(NC(=O)c3cccc(C(F)(F)F)n3)c(F)cc2n1)C1CCN(c2cccc3c2n(C)c(=O)n3C2CCC(=O)NC2=O)CC1 (stereo not drawn) [I-19, N-[2-[2-[[1-[1-(2,6-dioxo-3-piperidyl)-3-methyl-2-oxo-benzimidazol-4-yl]-4-piperidyl]-methyl-amino]ethyl]-6-fluoro-indazol-5-yl]-6-(trifluoromethyl)pyridine-2-carboxamide] | > 200 |
| COc1cc2nn(CCN(C)C3CCN(c4cccc5c4n(C)c(=O)n5C4CCC(=O)NC4=O)CC3)cc2cc1NC(=O)c1cccc(C(F)(F)F)n1 (stereo not drawn) [I-20, N-[2-[2-[[1-[1-(2,6-dioxo-3-piperidyl)-3-methyl-2-oxo-benzimidazol-4-yl]-4-piperidyl]-methyl-amino]ethyl]-6-methoxy-indazol-5-yl]-6-(trifluoromethyl)pyridine-2-carboxamide] | > 200 |
| COc1cc2nn(CCN(C)C3CCN(c4cccc5c4n(C)c(=O)n5C4CCC(=O)NC4=O)CC3)cc2cc1NC(=O)c1cnn2cccnc12 (stereo not drawn) [I-21, N-[2-[2-[[1-[1-(2,6-dioxo-3-piperidyl)-3-methyl-2-oxo-benzimidazol-4-yl]-4-piperidyl]-methyl-amino]ethyl]-6-methoxy-indazol-5-yl]pyrazolo[1,5-a]pyrimidine-3-carboxamide] | 100 to 200 |

More lines, now with the values ahead:

| DC50 [nM] | Compound |
| --- | --- |
| 50 to 100 | Cn1c(=O)n(C2CCC(=O)NC2=O)c2cccc(N3CC4CC(C3)N4C[C@H]3CC[C@H](n4cc5cc(NC(=O)c6cccc(C(F)(F)F)n6)ccc5n4)CC3)c21 (single isomer, unassigned) [I-157, N-[2-[4-[[3-[1-(2,6-dioxo-3-piperidyl)-3-methyl-2-oxo-benzimidazol-4-yl]-3,6-diazabicyclo[3.1.1]heptan-6-yl]methyl]cyclohexyl]indazol-5-yl]-6-(trifluoromethyl)pyridine-2-carboxamide] |
| 10 to 50 | Cn1c(=O)n(C2CCC(=O)NC2=O)c2cccc(C3C[C@H]4CC[C@@H](C3)N4C[C@H]3CC[C@H](n4cc5cc(NC(=O)c6cccc(C(F)(F)F)n6)ccc5n4)CC3)c21 (single isomer, unassigned) [I-250] |
| < 10 | Cn1c(=O)n(C2CCC(=O)NC2=O)c2cccc(C3CC4CCC(C3)N4C[C@H]3CC[C@H](n4cc5cc(NC(=O)c6cccc(C(F)(F)F)n6)ccc5n4)CC3)c21 (single isomer, unassigned) [I-251] |
| 10 to 50 | COc1ccc2c(c1C1CCN(C[C@H]3CC[C@H](n4cc5cc(NC(=O)c6cccc(C(F)(F)F)n6)ncc5n4)CC3)CC1)n(C)c(=O)n2[C@@H]1CCC(=O)NC1=O (single isomer, unassigned) [I-274] |
| < 10 | COc1cc2nn([C@H]3CC[C@H](CN4CC[C@H](c5cccc6c5n(C)c(=O)n6C5CCC(=O)NC5=O)CC4(C)C)CC3)cc2cc1NC(=O)c1cccc(C(F)(F)F)n1 (single isomer, unassigned) [I-292] |
| 10 to 50 | Cc1cc2nn([C@H]3CC[C@H](CN4CCC(c5cccc6c5n(C)c(=O)n6[C@H]5CCC(=O)NC5=O)CC4)CC3)cc2cc1NC(=O)c1cccc(C(F)(F)F)n1 (single isomer, unassigned) [I-390] |
| 50 to 100 | COc1cc2nc([C@H]3CC[C@H](CN4CC5(CC(CCNc6cccc7c6C(=O)N(C6CCC(=O)NC6=O)C7=O)C5)C4)CC3)n(C)c2cc1NC(=O)c1cccc(C(F)(F)F)n1 (stereo partly drawn) [I-3] |
| < 10 | COc1cc2nn([C@H]3CC[C@H](CN(C)[C@H]4CC[C@H](c5cccc6c5n(C)c(=O)n6C5CCC(=O)NC5=O)CC4)CC3)cc2cc1NC(=O)c1cccc(C(F)(F)F)n1 (stereo partly drawn) [I-5, N-[2-[4-[[[4-[1-(2,6-dioxo-3-piperidyl)-3-methyl-2-oxo-benzimidazol-4-yl]cyclohexyl]-methyl-amino]methyl]cyclohexyl]-6-methoxy-indazol-5-yl]-6-(trifluoromethyl)pyridine-2-carboxamide] |
| < 10 | COc1cc2nn([C@H]3CC[C@H](CN(C)[C@H]4CC[C@@H](c5cccc6c5n(C)c(=O)n6C5CCC(=O)NC5=O)CC4)CC3)cc2cc1NC(=O)c1cccc(C(F)(F)F)n1 (stereo partly drawn) [I-6, N-[2-[4-[[[4-[1-(2,6-dioxo-3-piperidyl)-3-methyl-2-oxo-benzimidazol-4-yl]cyclohexyl]-methyl-amino]methyl]cyclohexyl]-6-methoxy-indazol-5-yl]-6-(trifluoromethyl)pyridine-2-carboxamide] |
| 10 to 50 | COc1cc2nn([C@H]3CC[C@H](CN4CCC(CCNc5cccc6c5C(=O)N(C5CCC(=O)NC5=O)C6=O)CC4)CC3)cc2cc1NC(=O)c1cccc(C(C)(F)F)n1 (stereo partly drawn) [I-8] |
| 10 to 50 | CC(C)(O)c1cc2nc([C@H]3CC[C@H](CN4CC5(CC(CCNc6cccc7c6C(=O)N(C6CCC(=O)NC6=O)C7=O)C5)C4)CC3)cn2cc1NC(=O)c1cccc(C(F)(F)F)n1 (stereo partly drawn) [I-12] |
| < 10 | COc1cc2nn([C@H]3CC[C@H](CN4CCC5(CC4)CC(Nc4cccc6c4C(=O)N(C4CCC(=O)NC4=O)C6=O)C5)CC3)cc2cc1NC(=O)c1cnn2cccnc12 (stereo partly drawn) [I-13] |
| 10 to 50 | COc1cc2nn([C@H]3CC[C@H](CN(C)C4CCN(c5cccc6c5n(C)c(=O)n6C5CCC(=O)NC5=O)CC4)CC3)cc2cc1NC(=O)c1ccc(C(F)(F)F)cn1 (stereo partly drawn) [I-16] |
